Experiments:
[1] = biological target: cAMP-dependent protein kinase A (Bos taurus) (UniProt P00517+P05131+P31322+P00515)
Description: Activation of cAMP-dependent protein kinase type II

Description for Oryctolagus cuniculus: Activation of cAMP-dependent protein kinase type I

SMILES	K'a (Oryctolagus cuniculus)	K'a [1]
O=[N+]([O-])c1cccc2c1nnn2[C@@H]1O[C@@H]2COP(=O)(O)O[C@H]2[C@H]1O	0.88	1
O=[N+]([O-])c1cccc2c1ncn2[C@@H]1O[C@@H]2COP(=O)(O)O[C@H]2[C@H]1O	0.08	1.56
Nc1cccc2c1nnn2[C@@H]1O[C@@H]2COP(=O)(O)O[C@H]2[C@H]1O	0.88	0.93
O=P1(O)OC[C@H]2O[C@@H](n3nc4ccccc4n3)[C@H](O)[C@@H]2O1	0.82	3.5
Nc1cccc2c1ncn2[C@@H]1O[C@@H]2COP(=O)(O)O[C@H]2[C@H]1O	0.2	0.67

Other lines, results leading:

K'a (Oryctolagus cuniculus)	K'a [1]	SMILES
0.65	0.54	Nc1cccc2c1cnn2[C@H]1O[C@@H]2COP(=O)(O)O[C@H]2[C@H]1O
1.17	2.5	O=[N+]([O-])c1cccc2c1cnn2[C@@H]1O[C@@H]2COP(=O)(O)O[C@H]2[C@H]1O
0.14	1.4	O=P1(O)OC[C@H]2O[C@@H](n3cc4ccccc4n3)[C@H](O)[C@@H]2O1
0.25	0.7	O=P1(O)OC[C@H]2O[C@@H](n3nnc4ccccc43)[C@H](O)[C@@H]2O1 (stereo in doubt)
0.64	0.88	O=P1(O)OC[C@H]2O[C@@H](n3nnc4ccccc43)[C@H](O)[C@@H]2O1 (stereo in doubt; 14)
0.014	0.048	O=P1(O)OC[C@H]2O[C@@H](n3ncc4ccccc43)[C@H](O)[C@@H]2O1

From ChEMBL document CHEMBL1126248, “Synthesis and enzymatic activity of some new purine ring system analogues of adenosine 3',5'-cyclic monophosphate” (J Med Chem, 1992)
